Like-named read-outs stand apart in the source and are kept apart here.
How the values were obtained:
[1] = tested on: B cells; test: B cell apoptosis by intracellular active caspase-3 staining; assay type: cell-based; conditions: for percentage of caspase-3 positive B cells: day 7, mean±SD
Experimental: FIG. 5E-F show corresponding summarized data (n=8) for the frequency of caspase-3^+CD38^+/− non-plasmablasts (FIG. 5E) and caspase-3^+CD20^lowCD38^++ plasmablasts (FIG. 5F) at Day 7. […] Error bars are mean±SD. P values were determined with one-way ANOVA with Geisser-Greenhouse's multiple comparisons test.
B cells were stimulated to differentiate into plasmablasts using a two-phase cell culture protocol as previously described. Briefly, B cells were seeded at 4×10^5 cells/mL in 24-well plates and activated during 4 days with 50 ng/mL recombinant human soluble CD40L (R&D Systems), 2.5 μg/mL CpG oligodeoxynucleotide (ODN) 2006 (Amidogen or Cayla Invivogen), 2 μg/mL F(ab′)2 fragment goat anti-human IgA+IgG+IgM (H+L) polyclonal Abs (anti-BCR) (Jackson ImmunoResearch Laboratories), and 50 U/mL human IL-2 (SARL Pharmaxie or Novartis). Day 4-activated B cells were washed and cultured at the same concentration for three additional days in a fresh medium containing 50 U/mL human IL-2, 10 ng/mL human IL-4 (R&D Systems), and 10 ng/mL human IL-10 (R&D Systems) to induce B cell differentiation into plasmablasts. At days 0, 4 and 7, B cells were stained with viability marker LIVE/DEAD Fixable Aqua Dead Cell Stain (Thermofisher) to identify dead cells, followed by extracellular staining with anti-human mAbs: anti-CD20 FITC, anti-IgD BUV395, anti-CD27 BUV737, anti-CD38 BV605 (all from BD Biosciences) and analyzed by flow cytometry (FACSCelesta™, BD Biosciences). In some experiments, B cell apoptosis was evaluated by intracellular active caspase-3 staining (Caspase-3-PE, BD Biosciences).

[2] = tested on: CD4+CD25- effector T cells; test: T cell suppression assay (B cell / CD4+CD25- T cell co-culture); assay type: cell-based, human; conditions: for inhibition at 10 µM: Homo sapiens, T-cell, read-out: T-cell proliferation (percentage inhibition)
Experimental: B cells were kept unstimulated (B resting) or stimulated (B expanded) for 24 hours with the expansion mixture containing F(ab′)2 anti-BCR, CpG ODN, CD40L, IL-2, and IL-21. FIG. 6A-B show the expression level of granzyme B measured as frequency (FIG. 6A) and by the MFI (FIG. 6B) in DMSO-treated (compound 005-) and 10 μM compound 005-treated resting (open circles) and expanded for […] (closed circles) B cells. FIG. 6C-G show resting and expanded B cells washed with fresh medium and co-cultured with autologous CPD-labelled CD4^+CD25^− effector T cells for 3 days in the presence of anti-CD3/CD28 Dynabeads. compound 005 was added to the B cells only during 24-hours of activation with the expansion mixture (FIG. 6C-D), followed by daily supplementation during three days of co-culture (FIG. 6E-G). Representative offset histogram overlays showing median fluorescence intensity of staining of gated live […] with cell proliferation dye (CPD) (FIGS. 6C, 6E and 6F). The percentage of proliferating cells is indicated for one representative donor. FIGS. 6D and 6G show corresponding summarized data for the percentage inhibition of proliferation of anti-CD3/CD28-activated CD4^+CD25^− T cells co-cultured with resting (open circles) or expanded (closed circles) B cells without BOB1 inhibitor (DMSO-treated control) or in the presence of 10 μM compound 005. Bars indicate the mean±SD. ** P<0.01, *** P<0.001. FIG. 6H-J Expression values of POU2AF1 (FIG. 6H), POU2F1 (FIG. 6I), and POU2F2 (FIG. 6J) genes encoding BOB1, OCT1 and OCT2, respectively, extracted from scRNA-seq data on B cells stimulated toward regulatory (expanded) or unstimulated (rested). Data are represented with bar plots as mean+SD of non-zero values or with dot plots represented as a percentage of positive cells (FIG. 6H-J) or the average expression in each condition (FIG. 6K). P-values are adjusted to the number of expressed genes in the dataset.
Cells were resuspended in PBS and labelled with Cell Proliferation Dye eFluor 450 (CPD) (eBioscience) at a final concentration of 10 μM at 37° C. for 10 min, kept on ice for 5 min, and washed twice with 10 mL of ice-cold RPMI 1640 10% FCS medium.
Primary total human B cells (1×10^6 cells/mL) were prestimulated for ˜24 h with the cocktail containing 10 ng/mL of IL-21 (Miltenyi Biotec), 5 μg/mL of F(ab′)2 anti-BCR Abs (Jackson ImmunoResearch Laboratories Inc.), 50 ng/ml of CD40L (R&D systems), 1 μg/mL of CpG oligonucleotides (ODN 2006, Invivogen), and 50 U/mL of IL-2 (Novartis) as previously described, in the presence of vehicle (DMSO) or 10 μM compound 005. […] The capacity of B cells to suppress effector T cell proliferation was assessed as previously described. […] T cell proliferation was evaluated as the percentage of CPD-low T cells on day 3. […]

## Cc1ccc(NC(=O)C2CN(c3nc(NCCCc4ccc(F)cc4)nc(NCCC(=O)O)n3)c3ccccc3O2)cc1Cl (stereo not drawn) [compound 005, 3-((4-(2-((3-chloro-4-methylphenyl)carbamoyl)-2,3-dihydro-4H-benzo[b][1,4]oxazin-4-yl)-6-((3-(4-fluorophenyl)propyl)amino)-1,3,5-triazin-2-yl)amino)propanoic acid]
[1]; 5 μM
  percentage of caspase-3 positive B cells: 33.9±15.5%
[1]; 10 μM
  percentage of caspase-3 positive B cells: 25.6±7.5%
[1]; 15 μM
  percentage of caspase-3 positive B cells: 30.8±7.9%
[1]; activation phase (days 0-4), even at high concentrations
  frequencies of caspase-3 positive cells: did not affect
[1]; day 7
  susceptibility to apoptosis of CD20loCD38hi plasmablast and CD20+CD38+/- non-plasmablast populations: reduced susceptibility to apoptosis
[2]; 10 μM during the 24-hours pre-stimulation phase only
  suppressive capacity of B expanded: did not affect
[2]; 10 μM, co-cultures of T cells and B expanded
  suppression of effector T-cell proliferation: 79.7±4.9
[2]; 72 h, 10 μM, T cells only, 3 days
  inhibition at 10 µM: 53.7 ± 5.8%
[2]; 10 μM, co-cultures of T cells and B resting
  inhibition at 10 µM: 52.1 ± 7.1%
